Experimental data as given in ChEMBL document CHEMBL1201862, “PubChem BioAssay data set” (2004).
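Following 48 hours of exposure in 96-well plates, responses at five concentrations were used to interpolate endpoints linearly. At the GI50, growth is halved.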 The source made the active and inactive calls. Cut-off read from the data, not from the text of the source: active = GI50 up to about 1.1 µM and inactive = higher.

Tests used:
Experiment in all cases: growth of human tumour cells (NCI), 48 h
A549 = test system: A549
HCC 2998 = test system: HCC 2998
HCT-116 = test system: HCT-116
HCT-15 = test system: HCT-15
HL-60 = test system: HL-60
IGROV-1 = test system: IGROV-1
KM12 = test system: KM12
MOLT-4 = test system: MOLT-4
Malme-3M = test system: Malme-3M
NCI-H460 = test system: NCI-H460
OVCAR-4 = test system: OVCAR-4
OVCAR-8 = test system: OVCAR-8
RPMI-8226 = test system: RPMI-8226
RXF 393 = test system: RXF 393
SW-620 = test system: SW-620
UACC-257 = test system: UACC-257
CAKI-1 = test system: CAKI-1
MDA-MB-231 = test system: MDA-MB-231
UO-31 = test system: UO-31

SMILES | GI50 (A549) | GI50 (HCC 2998) | GI50 (HCT-116) | GI50 (HCT-15) | GI50 (HL-60) | GI50 (IGROV-1) | GI50 (KM12) | GI50 (MOLT-4) | GI50 (Malme-3M) | GI50 (NCI-H460) | GI50 (OVCAR-4) | GI50 (OVCAR-8) | GI50 (RPMI-8226) | GI50 (RXF 393) | GI50 (SW-620) | GI50 (UACC-257) | GI50 (CAKI-1) | GI50 (MDA-MB-231) | GI50 (UO-31)
CCn1c(CCl)nc2c1C(=O)c1ccccc1C2=O | 3.4 µM (inactive) | 1.56 µM (inactive) | 2.13 µM (inactive) | 1.66 µM | 2.43 µM (inactive) | 1.7 µM (inactive) | 1.73 µM (inactive) | 0.356 µM (active) | 1.04 µM (active) | 1.98 µM (inactive) | 1.66 µM (inactive) | 1.58 µM (inactive) | 2.12 µM (inactive) | 1.85 µM (inactive) | 1.33 µM (inactive) | 1.67 µM (inactive) | – | – | –
COC(=O)[C@@]1(Cc2ccc(O)cc2)C[C@@H]2Cc3ccccc3N2N1 | 81.7 µM (inactive) | – | 65.3 µM (inactive) | 81.8 µM | – | 78 µM (inactive) | > 100 µM (inactive) | 4.8 µM (inactive) | 49 µM (inactive) | – | > 100 µM (inactive) | 71.8 µM (inactive) | 30.5 µM (inactive) | – | > 100 µM (inactive) | 23.3 µM (inactive) | > 100 µM (inactive) | 49.1 µM (inactive) | 75.7 µM (inactive)
CC(C)c1ccc2nc3ccc(C(=O)NCCN4CCN(c5ccccc5)CC4)cn3c(=O)c2c1 | > 100 µM (inactive) | 11.1 µM (inactive) | 5.66 µM (inactive) | 6.38 µM | – | > 100 µM (inactive) | 20.2 µM (inactive) | 1.87 µM (inactive) | 1.85 µM (inactive) | 4.3 µM (inactive) | > 100 µM (inactive) | 4.33 µM (inactive) | – | – | 8.49 µM (inactive) | 4.67 µM (inactive) | 5.06 µM (inactive) | > 100 µM (inactive) | 4.9 µM (inactive)
Nc1ccc(C(=O)N/C(=C\c2ccc3c(c2)OCO3)c2nc3c(O)nc(S)nc3[nH]2)cc1 | > 100 µM (inactive) | > 100 µM (inactive) | – | > 100 µM | – | > 100 µM (inactive) | > 100 µM (inactive) | > 100 µM (inactive) | > 100 µM (inactive) | – | > 100 µM (inactive) | > 100 µM (inactive) | – | 33.8 µM (inactive) | > 100 µM (inactive) | – | > 100 µM (inactive) | – | > 100 µM (inactive)
COC(=O)[C@H]1C[C@H]1NC(=O)C(CC(=O)OCc1ccccc1)NC(=O)OCc1ccccc1 (some centres not stated) | 43.8 µM (inactive) | 88.3 µM (inactive) | 47.6 µM (inactive) | 73.1 µM | 17.9 µM (inactive) | 52.1 µM (inactive) | 31.6 µM (inactive) | 29.2 µM (inactive) | – | 31.2 µM (inactive) | – | 40 µM (inactive) | 19.1 µM (inactive) | – | > 100 µM (inactive) | 86.7 µM (inactive) | – | > 100 µM (inactive) | –
Cc1cccc2nc3n(c12)C(=O)c1ccccc1-3 | > 100 µM (inactive) | > 100 µM (inactive) | > 100 µM (inactive) | > 100 µM | > 100 µM (inactive) | > 100 µM (inactive) | > 100 µM (inactive) | > 100 µM (inactive) | > 100 µM (inactive) | > 100 µM (inactive) | > 100 µM (inactive) | > 100 µM (inactive) | > 100 µM (inactive) | > 100 µM (inactive) | > 100 µM (inactive) | > 100 µM (inactive) | > 100 µM (inactive) | – | > 100 µM (inactive)
CCOC(=O)c1cnc(-n2[nH]c3c(c2=O)CCCC3)[nH]c1=O | 63.1 µM (inactive) | – | 36.4 µM (inactive) | 44.1 µM | 28.1 µM (inactive) | > 100 µM (inactive) | 67.5 µM (inactive) | 43 µM (inactive) | 77.6 µM (inactive) | 45.5 µM (inactive) | 57.5 µM (inactive) | 37.5 µM (inactive) | 52.7 µM (inactive) | – | 35.2 µM (inactive) | 32.4 µM (inactive) | 48.1 µM (inactive) | 57.1 µM (inactive) | 54.6 µM (inactive)
C/C(=C\c1ccccc1)C(=O)c1c(C)cc(C)cc1C | > 100 µM (inactive) | – | > 100 µM (inactive) | > 100 µM | > 100 µM (inactive) | > 100 µM (inactive) | > 100 µM (inactive) | > 100 µM (inactive) | > 100 µM (inactive) | > 100 µM (inactive) | > 100 µM (inactive) | > 100 µM (inactive) | > 100 µM (inactive) | > 100 µM (inactive) | > 100 µM (inactive) | > 100 µM (inactive) | > 100 µM (inactive) | – | > 100 µM (inactive)
COc1cc2c(c(OC)c1)[C@H](C)N(Cc1ccccc1)C(C)C2 (some centres not stated) | 43.5 µM (inactive) | 33 µM (inactive) | 14.7 µM (inactive) | 28.6 µM | 4.88 µM (inactive) | 29.4 µM (inactive) | 30.2 µM (inactive) | 22.7 µM (inactive) | 62.4 µM (inactive) | 11 µM (inactive) | – | 74.1 µM (inactive) | 21.3 µM (inactive) | – | 28.9 µM (inactive) | 67.8 µM (inactive) | 64.9 µM (inactive) | 36.3 µM (inactive) | 54.2 µM (inactive)
CC1(C)CCC(C)(C)C1C(=O)NC(O)C(=O)O (configuration not stated) | > 100 µM (inactive) | > 100 µM (inactive) | > 100 µM (inactive) | > 100 µM | > 100 µM (inactive) | > 100 µM (inactive) | – | > 100 µM (inactive) | – | > 100 µM (inactive) | – | > 100 µM (inactive) | > 100 µM (inactive) | – | > 100 µM (inactive) | – | – | > 100 µM (inactive) | > 100 µM (inactive)
COc1ccc2oc(=O)c3c(c2c1C)OC(C)(C)C=C3 | > 100 µM (inactive) | > 100 µM (inactive) | > 100 µM (inactive) | > 100 µM | > 100 µM (inactive) | > 100 µM (inactive) | > 100 µM (inactive) | 44.1 µM (inactive) | > 100 µM (inactive) | > 100 µM (inactive) | – | > 100 µM (inactive) | > 100 µM (inactive) | – | > 100 µM (inactive) | > 100 µM (inactive) | > 100 µM (inactive) | > 100 µM (inactive) | > 100 µM (inactive)
Nn1c(=S)[nH]nc(/C=C/c2c(O)ccc3ccccc23)c1=O | 6.78 µM (inactive) | 7.5 µM (inactive) | 3.32 µM (inactive) | 3.13 µM | 0.203 µM (active) | 1.64 µM (inactive) | 6.12 µM (inactive) | 4.29 µM (inactive) | 12.2 µM (inactive) | 4.58 µM (inactive) | 4.06 µM (inactive) | 1.78 µM (inactive) | 28.6 µM (inactive) | – | 4.74 µM (inactive) | 5.3 µM (inactive) | 5.55 µM (inactive) | – | 6.35 µM (inactive)
COCC(C)(C)/N=C/N1Cc2cc3ccccc3nc2C1 | > 100 µM (inactive) | – | > 100 µM (inactive) | > 100 µM | > 100 µM (inactive) | > 100 µM (inactive) | > 100 µM (inactive) | > 100 µM (inactive) | > 100 µM (inactive) | > 100 µM (inactive) | > 100 µM (inactive) | > 100 µM (inactive) | > 100 µM (inactive) | > 100 µM (inactive) | > 100 µM (inactive) | > 100 µM (inactive) | > 100 µM (inactive) | – | > 100 µM (inactive)
